Columns and labels:
Assay type in all cases: cell-based, human
[1] = test system: Cancer Cells from tissue sample (CSCs, tumour marker+ cells) of a patient with GI cancer (Cholangio Carcinoma, stage 4); assay: Drug response score assay on tissue sample, Example 9; conditions: for Drug response score, conc. 1 / Drug response score, conc. 2 / Drug response score, conc. 3 / Drug response score, conc. 4 / Drug sensitivity as calculated by the assay, Tissue: tissue sample; for Drug response score, conc. 1: conc. 1 per Table 27B: Pem 20, Niv 20, Atez 100, Pacli 0.05, Irino 5, Beva 1 μg/ml, Len 50, 5-FU 250 ng/ml; for Drug response score, conc. 2: conc. 2 per Table 27B: Pem 40, Niv 40, Atez 200, Pacli 0.1, Irino 10, Beva 2 μg/ml, Len 100, 5-FU 500 ng/ml; for Drug response score, conc. 3: conc. 3 per Table 27B: Pem 100, Niv 80, Atez 400, Pacli 0.2, Irino 25, Beva 4 μg/ml, Len 200, 5-FU 1000 ng/ml; for Drug response score, conc. 4: conc. 4 per Table 27B: Pem 160, Niv 160, Atez 800, Pacli 1, Irino 50, Beva 8 μg/ml, Len 400, 5-FU 2000 ng/ml; for effectiveness on Cancer Cells from tissue sample under laboratory conditions: GI cancer (Cholangio Carcinoma) tissue sample; for Drug sensitivity as calculated by the assay, Tissue: interpretation based on Drug Response Scores
Procedure: Where a tissue sample was provided by each subject, cancer stem cells (CSCs, CD133^+), were isolated from said sample. Tumour marker cells were further isolated from each tissue sample. The remaining cells were designated tumour marker^+ cells.
First, disaggregation of the tissue samples was carried out. Disaggregation was dependent on the size of the tissue sample and the method of retrieval: • EBUS (Endobronchial Ultrasound Scan and Biopsy)—very small fragments of tissue in solution-spun at 1200 rpm for 5 minutes to collect tissue pellet • Bronchoscopy-larger fragments with larger amount of blood vessels • Broncho-lavage-similar to EBUS, spun at 1200 rpm for 5 minutes to collet tissue pellet
Once a pellet of tissue obtained, DMEM added to the tissue pellet and the material forced through a […] Smart strainer. Once a cell suspension was achieved, this was spun at 1200 rpm for 5 minutes and the supernatant removed. The cells were then resuspended to a volume of 60 μl.
20 μl of FcR block and 20 μl of CD133 microbeads were added to the resuspended cells, followed by incubation for 15 minutes at 4° C. The cells were then processed using an AutoMACS machine. This separates the […] into CD133^+ and CD133^− cells in 2 separate falcons. The falcon tubes are then centrifuged at 1200 rpm for 5 minutes.
The supernatant was removed from the CD133+falcon tube, and the cells resuspended in DMEM with 2 μl Cell Tox, 2 μl MT and 2 μl MT. 20 μl of the resuspended […] was then plated in each well which will contain an immunotherapy treatment.
The supernatant was removed from the CD133^− falcon tube, and the CD133^− cells contacted with 40 μl of a tumour separation microbeads cocktail containing microbeads bound to anti-CD31, anti-CD45, anti-Glycophorin-A (Gly-A) and an anti-fibroblast antibody.
This cocktail is used to separate out tumour marker cells using MACS, by separating out CD31^+, CD45^+ and Gly-A^+ cells. In addition, anti-fibroblast antibody-labelled beads are also used. The cocktail is added to the CD133^− falcon tube, followed by incubation for 15 minutes at 4° C. MACS is carried out using an AutoMACS machine. This cells which are not bound by the CD31, CD45, Gly-A and anti-fibroblast antibody beads are the tumour marker^+ cells.
(§1) The different cell types were each divided equally into populations, depending on the number of drugs/concentrations to be tested and plated on a cell-culture plate pre-coated with a scaffold of polycaprolactone (PCL) electrospun fibres and incubated at 37° C., 5% CO2, for 5 to (typically 10) minutes to facilitate cell attachment. After attachment, an initial imaging step was carried out using the RealTime-Glo™ MT assay from Promega (Catalogue No. G9711)) and the CellTox™ Green Cytotoxicity Assay (Promega, Catalogue No. G8741), carried out according to manufacturer's instructions. Following this initial imagining, the immunotherapeutic and/or chemotherapeutic agents were added to the cell populations as indicated below. After 10 minutes, the imagining step was repeated. The cell populations were then incubated at 37° C., 5% CO2 for 48 hours. The imaging step was then repeated. The cell populations were then re-dosed with the same immunotherapeutic and/or chemotherapeutic agents as indicated below, and incubated at 37° C., 5% CO2 for a further 48 hours. After this second 48 hour incubation, the imagining step was repeated for a final time.
At the end of this culture period, dose response scores were calculated using a normalized drug response metric as described in Gupta et al. (Communications Biology volume 3, Article number: 42 (2020), https://doi.org/10.1038/s42003-020-0765-z). The start readout for a given immunotherapeutic or chemotherapeutic agent at a given concentration was the to readout for said immunotherapeutic or chemotherapeutic agent at a specified concentration. […]

[2] = test system: Circulating tumour cells (CTCs) from a patient with GI cancer (Cholangio Carcinoma, stage 4); assay: Drug response score assay on blood sample, Example 9; parameters: key to Drug response score from blood sample, conc. 1 / Drug response score from blood sample, conc. 2 / Drug response score from blood sample, conc. 3 / Drug response score from blood sample, conc. 4: normalized drug response metric per Gupta et al. 2020; conditions: for Drug response score from blood sample, conc. 1: conc. 1 of each drug as in Table 27; for Drug response score from blood sample, conc. 1 / Drug response score from blood sample, conc. 2 / Drug response score from blood sample, conc. 3 / Drug response score from blood sample, conc. 4: t96h; for Drug response score from blood sample, conc. 2: conc. 2 of each drug as in Table 27; for Drug response score from blood sample, conc. 3: conc. 3 of each drug as in Table 27; for Drug response score from blood sample, conc. 4: conc. 4 of each drug as in Table 27; for effectiveness on Circulating Tumour Cells under laboratory conditions: GI cancer (Cholangio Carcinoma) blood sample; for Drug sensitivity as calculated by the assay, Blood: interpretation based on Drug Response Scores; for Drug response score from blood sample, conc. 1 / Drug response score from blood sample, conc. 2 / Drug response score from blood sample, conc. 3 / Drug response score from blood sample, conc. 4 / Drug sensitivity as calculated by the assay, Blood: blood sample
Procedure: (§2) CD45^+ cells and circulating tumour cells (CTCs) were isolated from a blood sample provided by each subject.
(§3) CD45 separation was performed by adding human CD45 microbeads (50 μl/ml blood), incubating for 15 minutes at 4° C. and then processing using an AutoMACS machine. This separates the blood sample into CD45^+ and CD45^−cells in 2 separate falcons. The falcon tubes are then centrifuged at 1200 rpm for 5 minutes.
The supernatant was removed from the CD45^+falcon tube, and the cells resuspended in DMEM with 2 μl Cell Tox, 2 μl MT and 2 μl MT. 20 μl of the resuspended CD45^+ cells was then plated in each well which will contain an immunotherapy treatment.
(§4) The supernatant was removed from the CD45^−falcon tube, and the CD45^−cells contacted with 100 μl of FcR block and 100 μl of CD326 (EpCAM) MicroBeads, followed by incubation at […] 4° C. for 30 minutes. The CD45^−cells were then processed using an AutoMACS machine to separate the EpCAM positive and negative cells into 2 separate falcon tubes. The EpCAM-cells were discarded. The supernatant was removed from the EpCAM^+ cells, and the cells resuspended in DMEM with 2 μl Cell Tox, 2 μl MT and 2 μl MT. 20 μl of the resuspended pellet was then added to all sample wells excluding a blank. After all wells are added to, a cell count was conducted on the […] to determine the number of circulating tumour cells (CTCs).
as §1
(§5) At the end of this culture period, dose response scores were calculated using a normalized drug response metric as described in Gupta et al. (Communications Biology volume 3, Article number: 42 (2020), https://doi.org/10.1038/s42003-020-0765-z). The start readout for a given immunotherapeutic or chemotherapeutic agent at a given concentration was the to readout for said immunotherapeutic or chemotherapeutic agent at a specified concentration. The end readout for a given immunotherapeutic or chemotherapeutic agent at a given concentration was the final timepoint reading (t96h) for said immunotherapeutic or chemotherapeutic agent at a specified concentration.
(§6) The positive control start readout for a given drug/concentration was the to readout for the corresponding drug at a specified concentration. The positive control end readout for the corresponding drug at a specified concentration was the final timepoint reading (t96h) for the corresponding blank well.
(§7) The negative control start and end readouts for a given immunotherapeutic or chemotherapeutic agent at a given concentration were the to and final timepoint reading (t96h) respectively for blank cell or blank immuno cell well respectively.
The sensitivity or resistance of a subject's cancer to a given immunotherapeutic or chemotherapeutic agent was determined based on the calculated drug response score as shown in Table 2. […]

[3] = test system: Circulating Tumour Cells (CTCs) from a patient with head and neck cancer (squamous cell carcinoma); assay: Drug response score assay on CTCs from blood, Example 6
Procedure: as §2, §3, §4, §1, §5, §6, §7
(§8) The sensitivity or resistance of a subject's cancer to a given immunotherapeutic or chemotherapeutic agent was determined based on the calculated drug response score as shown in Table 2.
Blood samples from a patient with head and neck cancer (squamous cell carcinoma) were received on 11 Mar. 2022 and tested using a 7 drug panel.

[4] = test system: Circulating Tumour Cells (CTCs) from a patient with colon cancer (sigmoid colon cancer); assay: Drug response score assay on CTCs from blood, Example 8; parameters: key to Drug response score, conc. 1 / Drug response score, conc. 2 / Drug response score, conc. 3 / Drug response score, conc. 4: normalized drug response metric (Gupta et al. 2020); conditions: for Drug response score, conc. 1: conc. 1 of each drug as in Table 24; for Drug response score, conc. 1 / Drug response score, conc. 2 / Drug response score, conc. 3 / Drug response score, conc. 4: CTCs, t96h; for Drug response score, conc. 2: conc. 2 of each drug as in Table 24; for Drug response score, conc. 3: conc. 3 of each drug as in Table 24; for Drug response score, conc. 4: conc. 4 of each drug as in Table 24; for Drug sensitivity as calculated by the assay (interpretation of Drug Response Scores): Table 26
Procedure: as §2, §3, §4
as §1, with “After” for “The different cell types were each divided equally into populations, depending on the number of drugs/concentrations to be tested and plated on a cell-culture plate pre-coated with a scaffold of polycaprolactone (PCL) electrospun fibres and incubated at 37° C., 5% CO2, for 5 to (typically 10) minutes to facilitate cell attachment. After”
as §5, §6, §7, §8
Blood samples from a patient with colon cancer (sigmoid colon cancer) were received on 8 Mar. 2022 and tested using a 9 drug panel.
Chemotherapeutic agents were tested as in Table 24.

Molecule: Bevacizumab
- Drug response score, conc. 1 [1]: 0.93
- Drug response score, conc. 2 [1]: 0.9294
- Drug response score, conc. 3 [1]: 0.932
- Drug response score, conc. 4 [1]: 0.9261
- Drug response score from blood sample, conc. 1 [2]: 0.4605
- Drug response score from blood sample, conc. 2 [2]: 1.257
- Drug response score from blood sample, conc. 3 [2]: 1.837
- Drug response score from blood sample, conc. 4 [2]: 2.21

Molecule: O=c1[nH]cc(F)c(=O)[nH]1 [5 FluoroUracil]
- effectiveness on Cancer Cells from tissue sample under laboratory conditions [1]: S+
- Drug response score, conc. 1 [1]: 0.9334
- Drug response score, conc. 2 [1]: 0.9488
- Drug response score, conc. 3 [1]: 0.9924
- Drug response score, conc. 4 [1]: 0.01222
- effectiveness on Circulating Tumour Cells under laboratory conditions [2]: S+
- Drug response score from blood sample, conc. 1 [2]: 0.4147
- Drug response score from blood sample, conc. 2 [2]: 0.341
- Drug response score from blood sample, conc. 3 [2]: 0.422
- Drug response score from blood sample, conc. 4 [2]: 0.08131

Molecule: CCCCCOC(=O)Nc1nc(=O)n([C@@H]2O[C@H](C)[C@@H](O)[C@H]2O)cc1F [Capecitabine]
- Drug response score, conc. 1 ([3]; conc. 1: Ifos 0.125 μg/ml, Gemcit 2 μg/ml, Doxo 10 ng/ml, Etop 1 μg/ml, Metho 0.5 μg/ml, Capecit 200 μg/ml, Vinor 20 μg/ml, CTCs, t96h): 0.7820
- Drug response score, conc. 2 ([3]; conc. 2: Ifos 0.25 μg/ml, Gemcit 10 μg/ml, Doxo 30 ng/ml, Etop 4 μg/ml, Metho 1 μg/ml, Capecit 300 μg/ml, Vinor 40 μg/ml, CTCs, t96h): 0.9244
- Drug response score, conc. 3 ([3]; conc. 3: Ifos 5 μg/ml, Gemcit 20 μg/ml, Doxo 90 ng/ml, Etop 20 μg/ml, Metho 2 μg/ml, Capecit 400 μg/ml, Vinor 80 μg/ml, CTCs, t96h): 0.6113
- Drug response score, conc. 4 ([3]; conc. 4: Ifos 10 μg/ml, Gemcit 40 μg/ml, Doxo 270 ng/ml, Etop 100 μg/ml, Metho 4 μg/ml, Capecit 600 μg/ml, Vinor 200 μg/ml, CTCs, t96h): 1.0037
- effectiveness on Circulating Tumour Cells under laboratory conditions ([3]; head and neck cancer CTCs): not effective
- Drug sensitivity as calculated by the assay (interpretation of Drug Response Scores) ([3]; head and neck cancer CTCs, Table 20): Resistant

Molecule: Nc1nc2[nH]cc(CCc3ccc(C(=O)N[C@@H](CCC(=O)O)C(=O)O)cc3)c2c(=O)[nH]1 [Pemetrexed]
- Drug response score, conc. 1 [4]: 5.1780
- Drug response score, conc. 2 [4]: −1.0000
- Drug response score, conc. 3 [4]: −1.0000
- Drug response score, conc. 4 [4]: −1.0000
- effectiveness on Circulating Tumour Cells under laboratory conditions ([4]; sigmoid colon cancer CTCs): S+++
- Drug sensitivity as calculated by the assay (interpretation of Drug Response Scores) ([4]; sigmoid colon cancer CTCs): Sensitive (S+++)

Molecule: O=c1[nH]cc(F)c(=O)[nH]1 [5FU]
- Drug sensitivity as calculated by the assay, Tissue [1]: S+
- Drug sensitivity as calculated by the assay, Blood [2]: S+

Molecule: Cn1nnc2c(C(N)=O)ncn2c1=O [Temozolamide]
- Drug response score, conc. 1 [4]: −1.0000
- Drug response score, conc. 2 [4]: 0.0367
- Drug response score, conc. 3 [4]: −0.1421
- Drug response score, conc. 4 [4]: −0.4687
- Drug sensitivity as calculated by the assay (interpretation of Drug Response Scores) ([4]; sigmoid colon cancer CTCs): Sensitive (S++)

Molecule: Atezolizumab
- effectiveness on Cancer Cells from tissue sample under laboratory conditions [1]: S+
- Drug sensitivity as calculated by the assay, Tissue [1]: S+
- Drug response score, conc. 1 [1]: 0.8904
- Drug response score, conc. 2 [1]: 0.9047
- Drug response score, conc. 3 [1]: 0.8647
- Drug response score, conc. 4 [1]: 0.7954
- effectiveness on Circulating Tumour Cells under laboratory conditions [2]: S++
- Drug response score from blood sample, conc. 1 [2]: 0.1037
- Drug response score from blood sample, conc. 2 [2]: 0.1499
- Drug response score from blood sample, conc. 3 [2]: 0.3493
- Drug response score from blood sample, conc. 4 [2]: 0.4391
- Drug sensitivity as calculated by the assay, Blood [2]: S++

— patent publication US20250290915A1, “METHOD FOR PREDICTING RESPONSIVENESS TO THERAPY” (CANCERTAIN LIMITED, priority 2022, published 2025)
